Test results from paper PMC10789292 (Journal of Alzheimer's Disease Reports, 2023).

Test system: cPLA2-IVA expressed in mouse brain
Test: Peptide binding to brain slices by IHC
Conditions: for Binding (staining) to healthy NMRI and APP/PS1 mouse brain slices: biotinylated peptide 20 μM in HCN, overnight 4°C, DAB detection

| Sequence | Binding (staining) to healthy NMRI and APP/PS1 mouse brain slices | Staining of APP/PS1 versus healthy brain slices (biotinylated peptide 20 μM, 2 years old APP/PS1 mice) |
| --- | --- | --- |
| DDFRVWWPNFPR [PLP2] | good staining | – |
| YQFGYDYPRSQV [PLP1] | unable to bind the brain tissue | – |
| HVTLRYMHPMVS [PLP25] | good staining | higher staining of APP/PS1 brain slices |
